Among the data in ChEMBL document CHEMBL4431371, “Targeting the Cystic Fibrosis Transmembrane Conductance Regulator (CFTR) Protein for the Treatment of Cystic Fibrosis” (ACS Med Chem Lett, 2016) are max activation and EC50 values, retold here.

Molecules are shown by their SMILES.

For assay [1], the system named is Cystic fibrosis transmembrane conductance regulator (Homo sapiens), P13569 [F508del]. Nature of the assay: (§1) Corrector activity at CFTR F508del mutant (unknown origin) expressed in human CFBE41o cells incubated for 18 to 24 hrs by CSE-HRP assay. The format is cell-based.
Assay [2] concerns the target T1, Cystic fibrosis transmembrane conductance regulator (Homo sapiens, UniProt P13569, F508DEL). The description is as §1. It is filed as cell-based.
The subject of assay [3] is Cystic fibrosis transmembrane conductance regulator (Homo sapiens), P13569 [F508del]. Nature of the assay: (§2) Corrector activity at CFTR F508del mutant in human bronchial epithelial cells incubated for 18 to 24 hrs by TECC-based conductance assay.
Assay [4] deals with T1, Cystic fibrosis transmembrane conductance regulator. The assay is described as §2.

T1 sequence (P13569 as listed by the source): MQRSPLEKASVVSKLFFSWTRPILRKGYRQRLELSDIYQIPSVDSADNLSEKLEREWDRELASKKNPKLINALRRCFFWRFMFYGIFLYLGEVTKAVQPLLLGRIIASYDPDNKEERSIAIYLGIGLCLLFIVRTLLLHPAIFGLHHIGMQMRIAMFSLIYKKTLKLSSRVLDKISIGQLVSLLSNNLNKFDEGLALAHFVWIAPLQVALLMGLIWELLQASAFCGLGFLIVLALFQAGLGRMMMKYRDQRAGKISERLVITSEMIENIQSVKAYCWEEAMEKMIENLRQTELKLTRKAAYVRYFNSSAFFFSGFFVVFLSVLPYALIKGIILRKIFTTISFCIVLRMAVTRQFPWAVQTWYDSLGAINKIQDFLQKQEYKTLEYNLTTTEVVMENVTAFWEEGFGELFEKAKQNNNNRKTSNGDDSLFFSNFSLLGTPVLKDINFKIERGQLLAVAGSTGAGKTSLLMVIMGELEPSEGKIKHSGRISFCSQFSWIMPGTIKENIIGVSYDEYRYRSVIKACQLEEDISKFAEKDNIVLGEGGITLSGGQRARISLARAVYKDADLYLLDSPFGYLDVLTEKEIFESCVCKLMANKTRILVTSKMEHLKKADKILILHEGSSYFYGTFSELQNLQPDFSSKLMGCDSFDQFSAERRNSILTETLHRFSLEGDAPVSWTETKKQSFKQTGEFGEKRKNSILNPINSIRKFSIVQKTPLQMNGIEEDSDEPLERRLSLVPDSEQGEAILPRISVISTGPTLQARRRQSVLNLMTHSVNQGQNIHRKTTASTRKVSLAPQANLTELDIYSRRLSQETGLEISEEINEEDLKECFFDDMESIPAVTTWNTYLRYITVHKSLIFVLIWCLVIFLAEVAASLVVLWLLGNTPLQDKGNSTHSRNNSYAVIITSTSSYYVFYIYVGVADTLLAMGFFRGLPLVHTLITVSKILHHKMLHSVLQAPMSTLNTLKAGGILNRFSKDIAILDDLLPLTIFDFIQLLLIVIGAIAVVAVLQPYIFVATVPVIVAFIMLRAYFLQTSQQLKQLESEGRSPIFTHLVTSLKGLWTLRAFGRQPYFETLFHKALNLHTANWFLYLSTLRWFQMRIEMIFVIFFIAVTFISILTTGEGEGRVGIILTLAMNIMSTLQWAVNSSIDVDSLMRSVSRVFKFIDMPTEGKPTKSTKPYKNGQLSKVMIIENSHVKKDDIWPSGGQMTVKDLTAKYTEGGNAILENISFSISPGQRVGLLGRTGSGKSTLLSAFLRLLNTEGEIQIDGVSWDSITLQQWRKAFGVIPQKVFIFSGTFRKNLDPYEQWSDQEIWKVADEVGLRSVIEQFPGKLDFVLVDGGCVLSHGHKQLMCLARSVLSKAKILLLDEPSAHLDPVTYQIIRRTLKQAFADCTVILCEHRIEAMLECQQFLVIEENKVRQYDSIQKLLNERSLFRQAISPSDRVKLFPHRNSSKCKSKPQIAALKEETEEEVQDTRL
Chain of Cystic fibrosis transmembrane conductance regulator (Homo sapiens), P13569 [F508del] (P13569 as listed by the source): as above

By EC50 is commonly meant the concentration giving half of the maximal effect. Turning to `O=C(O)c1ccc([C@H]2C[C@@H](NC(=O)C3(c4ccc5c(c4)OC(F)(F)O5)CC3)CCO2)cc1` (racemic), the results for the max activation in assay [1] and in assay [3] were 113% and 73%, respectively. Also, the EC50 in assay [2] worked out at 2860 nM; in assay [4] it was 1340 nM.
For `O=C(O)c1ccc([C@H]2C[C@@H](NC(=O)C3(c4ccc5c(c4)OC(F)(F)O5)CC3)C[C@@H](c3ccccc3)O2)cc1`, the max activation in assay [1] was 81%; in assay [3], 73%. The EC50 in assay [2] turned out to be 300 nM; in assay [4], 260 nM.
Regarding `CCOC(=O)c1cc(C)cc([C@H]2C[C@@H](NC(=O)C3(c4ccc5c(c4)OC(F)(F)O5)CC3)C[C@@H](c3ccccc3)O2)c1` (racemic), the max activation in assay [1] was 106%. Also, a half-maximal response in assay [2] (EC50) required 1160 nM.
As to `O=C(O)c1cccc([C@H]2C[C@@H](NC(=O)C3(c4ccc5c(c4)OC(F)(F)O5)CC3)C[C@@H](c3ccccc3)O2)c1`, the max activation in assay [1] was found to be 109%; in assay [3], 94%. For the same compound, the EC50 is 280 nM in assay [2] and 100 nM in assay [4].
With `O=C(O)c1cccc([C@H]2C[C@@H](NC(=O)C3(c4ccc5c(c4)OC(F)(F)O5)CC3)CCO2)c1` (racemic), the max activation in assay [1] stood at 71%. In assay [2], this compound gave an EC50 of 850 nM.
For `O=C(O)c1cccc([C@@H]2C[C@H](NC(=O)C3(c4ccc5c(c4)OC(F)(F)O5)CC3)C[C@H](c3ccccc3)O2)c1`, in that order: 16% and 20000 nM.
